Results published in patent US20240101548A1, “HYDROXAMATE COMPOUND, PREPARATION METHOD THEREFOR AND APPLICATION THEREOF” (SHENZHEN CHIPSCREEN BIOSCIENCES CO., LTD., priority 2020, published 2024).
pIC50: −log10 of the molar value. Where two headings read alike, the source gives them in different places.

Key:
Assay type in all cases: cell-based, human
[1] = test system: IL-2-induced JAK1/JAK3 signal pathway; assay: IL-2-induced proliferation of KHYG-1 cells (JAK1/JAK3 signal); settings: KHYG-1 cell proliferation, IL-2 10 ng/mL, 72 hours, read-out: Inhibition activity IC50 on IL-2-induced JAK1/JAK3 signal pathway
Procedure, shortened: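 KHYG-1 NK lymphoma cells were cultured with IL-2 and test compound at various doses for 72 h at 37 °C and 5% CO2, and proliferation was read with alamarBlue fluorescence. Inhibition was normalized to wells without compound or cytokine (0%) and IL-2 wells without compound (100%), and C50 was derived from the dose-inhibition data.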

[2] = test system: EPO-induced JAK2 signal pathway; assay: EPO-induced proliferation of UT-7 cells (JAK2 signal); settings: UT-7 cell proliferation, EPO 10 ng/mL, 72 hours, read-out: Inhibition activity IC50 on EPO-induced JAK2 signal pathway
Procedure, shortened: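 UT-7 cells (15000/well) stimulated with 10 ng/mL human recombinant EPO plus compound at final 0, 100, 1000 or 10000 nM, 72 h at 37° C., 5% CO2. Proliferation by alamarBlue fluorescence (Ex530/Em590); inhibition normalised to no-cytokine/no-compound (0) and EPO-only (100) wells, […] derived from dose-inhibition.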

[3] = test system: IL-10-induced JAK1/TYK2 signal pathway; assay: IL-10-induced JAK1/TYK2 signal pathway STAT3-Luc reporter gene assay in U2OS cells; settings: U2OS cells, STAT3-Luc reporter, IL-10 10 ng/mL, read-out: Half inhibition dose (IC50) on IL-10-induced JAK1/TYK2 signal pathway
Description: Cytokine IL-10 is one of the main members of IL-10 family. The receptor that cytokine IL-10 binds to consists of two kinds of subunits, i.e., IL-10R1 and IL-10R2, which respectively couple with JAK1 and TYK2. After the coupling of IL-10 with its receptor, interaction of phosphorylation occurs between JAK1 and TYK2 to form STAT3 docking site for phosphorylation of STAT3. The phosphorylated STAT3 enters the nucleus and drives the transcription and expression of downstream genes.
The reporter gene plasmid STAT3-Luc Reporter used in the present invention has luciferase expression sequence as the reporter gene, upstream of which is a promoter sequence containing multiple STAT3 binding sites. When phosphorylated STAT3 induced by IL-10 signal pathway binds to the promoter of STAT3-Luc Reporter plasmid, luciferase is transcribed and expressed. The excitation fluorescence catalyzed by Luciferase can be detected after the addition of […] substrate, whose intensity can quantitively reflect the activation level of the signal pathway.
Human osteosarcoma cell line U20S was commercially available from American Type Culture Collection (ATCC), and relevant culture conditions referred to those from ATCC. It was known that such cell line could express IL-10R2, JAK1, TYK2 and STAT3, therefore, by exogenous expression of IL-10R1 gene, a complete IL-10 signal pathway could be established. The human IL-10R1 subunit overexpression plasmid pCMV3-IL10RA-EGFP was constructed by Shanghai Genechem Co., Ltd., and capable of simultaneously expressing enhanced green fluorescent protein. In the subsequent detection and calculation, the signal of green fluorescent protein in the tested sample was used as a reference for transfection efficiency calibration of the luciferase reporter gene signal. Reporter plasmid STAT3-Luc Reporter was commercially available from Ji Man Biotech (Shanghai) Co., Ltd.
X-tremeGENE 9 DNA Transfection Reagent (Roche) was used for the transfection of plasmid DNA into cells, Cell Culture Lysis 5× reagent (Promega) and Luciferase Assay System (Promega) were used in cell lysate preparation and enzyme-substrate reaction for luciferase reporter gene detection. Green fluorescent protein signal and luciferase reporter gene signal were both detected by Tecan Spark™ 10M multimode microplate reader. The inhibition rate of the tested compound on the IL-10 signal pathway reporter gene signal and the half inhibition dose IC50 were both calculated using Microsoft Excel and GraphPad Prism 7.00 software.
U2OS cell line was inoculated in 96-well plate with flat bottom at 5000 cells per well, and cultured overnight at 37° C. and 5% CO2 followed by plasmid transfection. Following the instructions and using X-tremeGENE 9 DNA Transfection Reagent, pCMV3-IL10RA-EGFP and STAT3-Luc Reporter plasmids were co-transfected into the inoculated U2OS cells. After 24 hours of transfection, the tested compound was added respectively for a final concentration of 0, 0.1, 0.3, 1, 3, 10, 30, 100, or 300 nM. After 6 hours of culture at 37° C. and 5% CO2, IL-10 cytokine (Human IL-10 PEPROTECH 200-10-10UG) was added to each well for a final concentration of 10 ng/mL, the well in which neither compound nor cytokine was added was designated as 0% control well. The culture was continued for 24 hours before testing.
Cell lysate was prepared by using Cell Culture Lysis reagent and transferred to 96-well plate with half-well clear bottom. The green fluorescent protein signal value was detected at Ex485/Em520 using Tecan microplate reader, and recorded. After adding to each well the luciferase substrate from Luciferase Assay System, the signal value of luciferase-substrate reaction was immediately detected at 560 nm using Tecan microplate reader, and recorded.
Using Microsoft Excel software, the signal value of luciferase-substrate reaction of each well was calculated and calibrated based on the signal value of green fluorescent protein of each well. […]

SMILES	pIC50 ([1]; Homo sapiens)	pIC50 ([2]; Homo sapiens, UT7)	other results
CCONC(=O)c1cnc(Nc2ccn(C)n2)cc1Nc1cc(F)c(C2CC2)cc1N(C)S(C)(=O)=O [Example 171, 4-((4-cyclopropyl-5-fluoro-2-(N-methylmethanesulfonamido)phenyl)amino)-N-ethoxy-6-((1-methyl-1H-pyrazol-3-yl)amino)nicotinamide]	< 5.00	< 5.00	pIC50 ([3]; Homo sapiens, U2OS): 8.81
CONC(=O)c1cnc(Nc2ccc(F)cn2)cc1Nc1ccc(Cl)cc1N(C)S(C)(=O)=O [Example 80, 4-((4-chloro-2-(N-methylmethanesulfonamido)phenyl)amino)-6-((5-fluoropyridin-2-yl)amino)-N-methoxy nicotinamide]			pIC50 [1]: < 5.00; pIC50 [2]: < 5.00; pIC50 [3]: 9.02
CONC(=O)c1cnc(NC(=O)C2CC2)cc1Nc1ccc(C)cc1N(C)S(C)(=O)=O [Example 81, 6-(cyclopropylcarboxamido)-N-methoxy-4-((4-methyl-2-(N-methylmethanesulfonamido)phenyl)amino)nicotinamide]	< 5.00	< 5.00	pIC50 ([3]; Homo sapiens): 8.82
CCONC(=O)c1cnc(Nc2cc(C)nc(C)n2)cc1Nc1ccc(C2CC2)cc1N(C)S(=O)(=O)CC [Example 185]	< 5.00	< 5.00	pIC50 ([3]; Homo sapiens, U2OS): 9.09
CCONC(=O)c1cnc(Nc2cccc(F)n2)cc1Nc1ccc(Cl)cc1N(C)S(C)(=O)=O [Example 129, 4-((4-chloro-2-(N-methylmethanesulfonamido)phenyl)amino)-N-ethoxy-6-((6-fluoropyridin-2-yl)amino)nicotinamide]	< 5.00	< 5.00	pIC50 ([3]; Homo sapiens, U2OS): 8.97
CCONC(=O)c1cnc(Nc2cc(C)nc(C)n2)cc1Nc1ccc(OC)cc1N(C)S(C)(=O)=O [Example 131, 6-((2,6-dimethylpyrimidin-4-yl)amino)-N-ethoxy-4-((4-methoxy-2-(N-methylmethanesulfonamido)phenyl)amino)nicotinamide]	< 5.00	< 5.00	pIC50 ([3]; Homo sapiens, U2OS): 9.24
CCONC(=O)c1cnc(Nc2cc(C)nc(C)c2)cc1Nc1ccc(C2CC2)cc1N(C)S(C)(=O)=O [Example 221]	< 5.00	< 5.00	
CCONC(=O)c1nnc(Nc2cc(C)nc(C)n2)cc1Nc1cccc(-c2ncc(C)cn2)c1OC [Example 276, 6-((2,6-dimethylpyrimidin-4-yl)amino)-N-ethoxy-4-((2-methoxy-3-(5-methylpyrimidin-2-yl)phenyl)amino)pyridazine-3-carboxamide]	< 5.00	< 5.00	
CONC(=O)c1cnc(NC(=O)C2CC2)cc1Nc1cccn(-c2nccs2)c1=O [Example 1, 6-(cyclopropylcarboxamido)-N-methoxy-4-((2-oxo-1-(thiazol-2-yl)-1,2-dihydropyridin-3-yl)amino)nicotinamide]	< 5.00	< 5.00	
CONC(=O)c1cnc(Nc2ccc(C)cn2)cc1Nc1ccc(C)cc1N(C)S(C)(=O)=O [Example 107, N-methoxy-4-((4-methyl-2-(N-methylmethanesulfonamido)phenyl)amino)-6-((5-methylpyridin-2-yl)amino)nicotinamide]	< 5.00	< 5.00	
CCONC(=O)c1cnc(Nc2cc(C)nc(C)n2)cc1Nc1cccc(-c2cnn(C)c2)c1OC [Example 25, 6-((2,6-dimethylpyrimidin-4-yl)amino)-N-ethoxy-4-((2-methoxy-3-(1-methyl-1H-pyrazol-4-yl)phenyl)amino)nicotinamide]	< 5.00	< 5.00	
CCONC(=O)c1cnc(Nc2ncc(C)s2)cc1Nc1ccc(OC)cc1N(C)S(C)(=O)=O [Example 172, N-ethoxy-4-((4-methoxy-2-(N-methylmethanesulfonamido)phenyl)amino)-6-(5-methylthiazol-2-ylamino)nicotinamide]	< 5.00	< 5.00	
CONC(=O)c1cnc(NC(=O)C2CC2)cc1Nc1cccc(C2CC2)c1N(C)S(C)(=O)=O [Example 85, 6-(cyclopropylcarboxamido)-4-((3-cyclopropyl-2-(N-methylmethanesulfonamido)phenyl)amino)-N-methoxy nicotinamide]	< 5.00	< 5.00	
CCONC(=O)c1cnc(Nc2ccc(C3CC3)cn2)cc1Nc1ccc(Cl)cc1N(C)S(C)(=O)=O [Example 152, 4-((4-chloro-2-(N-methylmethanesulfonamido)phenyl)amino)-6-((5-cyclopropylpyridin-2-yl)amino)-N-ethoxy nicotinamide]	< 5.00	< 5.00	
[2H]C([2H])([2H])NC(=O)c1cnc(Nc2ccccn2)cc1Nc1cccc(-c2ncc(F)cn2)c1OC [Example 253, 4-((3-(5-fluoropyrimidin-2-yl)-2-methoxyphenyl)amino)-N-(methyl-d3)-6-(pyridin-2-ylamino)nicotinamide, reference compound]			pIC50 ([3]; Homo sapiens, U2OS): 8.01
CONC(=O)c1cnc(NC(=O)C2CC2)cc1Nc1cccc(C)c1N(C)S(C)(=O)=O [Example 33, 6-(cyclopropylcarboxamido)-N-methoxy-4-((3-methyl-2-(N-methylmethanesulfonamido)phenyl)amino)nicotinamide]	< 5.00	< 5.00	
CONC(=O)c1cnc(NC(=O)C2CC2)cc1Nc1ccc(C)nc1N(C)S(C)(=O)=O [Example 59, 6-(cyclopropylcarboxamido)-N-methoxy-4-((6-methyl-2-(N-methylmethanesulfonamido)pyridin-3-yl)amino)nicotinamide]	< 5.00	< 5.00	
CCONC(=O)c1cnc(Nc2ncccn2)cc1Nc1cc(F)c(C2CC2)cc1N(C)S(C)(=O)=O [Example 169, 4-((4-cyclopropyl-5-fluoro-2-(N-methylmethanesulfonamido)phenyl)amino)-N-ethoxy-6-(pyrimidin-2-ylamino)nicotinamide]	< 5.00	< 5.00	
CONC(=O)c1cnc(Nc2ccc(F)cn2)cc1Nc1ccc(OC)nc1N(C)S(C)(=O)=O [Example 8, 6-((5-fluoropyridin-2-yl)amino)-N-methoxy-4-((6-methoxy-2-(N-methylmethanesulfonamido)pyridin-3-yl)amino)nicotinamide]	< 5.00	< 5.00	
